target: human TRPA1 (Homo sapiens, UniProt O75762); test: cell-based; details: not given
Sequence (O75762 whole entry): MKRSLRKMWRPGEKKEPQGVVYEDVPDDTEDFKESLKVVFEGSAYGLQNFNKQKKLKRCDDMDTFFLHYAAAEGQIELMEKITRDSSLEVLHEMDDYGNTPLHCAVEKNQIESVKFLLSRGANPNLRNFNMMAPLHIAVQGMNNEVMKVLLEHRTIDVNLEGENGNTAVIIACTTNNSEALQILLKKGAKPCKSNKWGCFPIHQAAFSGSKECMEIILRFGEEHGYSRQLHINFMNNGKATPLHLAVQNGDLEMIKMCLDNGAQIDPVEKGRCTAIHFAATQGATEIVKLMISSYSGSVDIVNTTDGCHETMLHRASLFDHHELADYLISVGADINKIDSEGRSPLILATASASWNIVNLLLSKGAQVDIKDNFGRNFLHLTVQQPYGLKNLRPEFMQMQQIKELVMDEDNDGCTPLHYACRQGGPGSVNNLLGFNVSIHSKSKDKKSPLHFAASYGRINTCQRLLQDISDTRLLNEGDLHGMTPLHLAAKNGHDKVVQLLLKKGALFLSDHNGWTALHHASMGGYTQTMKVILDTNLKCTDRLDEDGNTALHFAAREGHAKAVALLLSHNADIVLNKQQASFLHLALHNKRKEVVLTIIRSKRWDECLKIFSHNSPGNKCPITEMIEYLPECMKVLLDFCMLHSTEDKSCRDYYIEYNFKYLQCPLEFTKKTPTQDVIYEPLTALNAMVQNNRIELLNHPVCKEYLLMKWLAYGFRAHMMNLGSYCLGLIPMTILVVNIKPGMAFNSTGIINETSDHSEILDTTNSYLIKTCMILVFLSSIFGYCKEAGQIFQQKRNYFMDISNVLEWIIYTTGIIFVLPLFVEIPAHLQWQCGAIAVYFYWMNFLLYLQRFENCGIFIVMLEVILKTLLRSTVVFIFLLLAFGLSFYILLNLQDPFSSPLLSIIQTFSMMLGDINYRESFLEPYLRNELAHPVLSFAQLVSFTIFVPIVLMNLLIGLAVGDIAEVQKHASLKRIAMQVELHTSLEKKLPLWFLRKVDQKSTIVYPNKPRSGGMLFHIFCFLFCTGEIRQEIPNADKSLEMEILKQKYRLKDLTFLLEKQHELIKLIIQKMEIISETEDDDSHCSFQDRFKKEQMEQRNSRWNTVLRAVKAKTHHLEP

Compound | IC50
O=C1C2=C(NC(=S)NC2c2cccnc2)c2ccccc21 (stereo not shown) [Compound 33] | 500 to 1000 nM
COc1ccccc1C1NC(=S)NC2=C1C(=O)c1ccccc12 (stereo not shown) [Compound 40] | > 1000 nM
O=C1C2=C(NC(=S)NC2c2ccccc2)c2ccccc21 (stereo not shown) [Compound 201] | < 100 nM

same assay, conditions: read-out: Activity (IC50)

Compound | IC50
C=CCC(F)c1cccc(C2NC(=O)NC3=C2C(=O)c2cccnc23)c1 (stereo not shown) [Compound 905] | < 100 nM
CCCOc1cccc(C2NC(=O)N(CC#N)C3=C2C(=O)c2ccccc23)c1 (stereo not shown) [Compound 615] | < 100 nM
CC(C)Oc1cccc(C2NC(=O)NC3=C2C(=O)c2ccccc23)c1 (stereo not shown) [Compound 437] | > 1000 nM
N#Cc1cccc(C2NC(=O)NC3=C2C(=O)c2ccccc23)c1 (stereo not shown) [Compound 430] | > 1000 nM
CCOc1cncc(C2NC(=O)NC3=C2C(=O)c2ccccc23)c1 (stereo not shown) [Compound 503] | > 1000 nM
O=C1NC2=C(C(=O)c3ccccc32)C(c2cc(C(F)(F)F)ccc2Cl)N1 (stereo not shown) [Compound 448] | > 1000 nM
CCn1c(=O)oc2c(C3NC(=O)NC4=C3C(=O)c3ccccc34)cccc21 (stereo not shown) [Compound 506] | > 1000 nM
C=CCOc1cccc(C2NC(=O)N(CC)C3=C2C(=O)c2ccccc23)c1 (stereo not shown) [Compound 630] | < 100 nM
CCOc1cccc(C2NC(=O)N(CC#N)C3=C2C(=O)c2ccccc23)c1F (stereo not shown) [Compound 617] | < 100 nM
CCCSc1cccc(C2NC(=O)NC3=C2C(=O)c2cccnc23)c1 (stereo not shown) [Compound 906] | 100 to 500 nM
CCOc1cccc(C2NC(=O)NC3=C2C(=O)c2ccccc23)c1 (stereo not shown) [Compound 602] | 100 to 500 nM
CN1C(=NC#N)NC2=C(C(=O)c3c(Cl)cccc32)C1c1cccc(OCC2CC2)c1 (stereo not shown) [Compound 953] | > 1000 nM
COc1ccc(Br)c(C2NC(=O)NC3=C2C(=O)c2ccccc23)c1 (stereo not shown) [Compound 433] | > 1000 nM
N#CN=C1NC2=C(C(=O)c3ccccc32)C(c2cccc(OCC3CC3)c2Cl)N1 (stereo not shown) [Compound 957] | > 1000 nM
C=CCOc1cccc(C2NC(=O)NC3=C2C(=O)c2ccccc23)c1 (stereo not shown) [Compound 405] | < 100 nM
C=CCOc1cccc(C2NC(=O)N(Cc3cccnc3)C3=C2C(=O)c2ccccc23)c1 (stereo not shown) [Compound 634] | < 100 nM
C=CCN1C(=O)NC(c2cccc(OCC)c2)C2=C1c1ccccc1C2=O (stereo not shown) [Compound 614] | 100 to 500 nM
CCCC(O)c1cccc(C2NC(=O)NC3=C2C(=O)c2cccnc23)c1 (stereo not shown) [Compound 908] | 100 to 500 nM
CCN1C(=O)NC(c2cccc(OC(F)F)c2)C2=C1c1ccccc1C2=O (stereo not shown) [Compound 619] | 100 to 500 nM
C=CCOc1cccc(C2NC(=O)NC3=C2C(=O)c2ccccc23)c1Cl (stereo not shown) [Compound 411] | < 100 nM
O=C1NC2=C(C(=O)c3ccccc32)C(c2cccc(C(F)(F)F)c2)N1 (stereo not shown) [Compound 452] | > 1000 nM
C=CCOc1cccc(C2NC(=O)NC3=C2C(=O)c2ccccc23)c1OC (stereo not shown) [Compound 455] | > 1000 nM

Compound | IC50
CCOc1cccc(C2NC(=O)N(CC#N)C3=C2C(=O)c2ccccc23)c1 (stereo not shown) [Compound 601] | < 100 nM
COc1cccc(C2NC(=O)NC3=C2C(=O)c2ccccc23)c1Cl (stereo not shown) [Compound 428] | > 1000 nM
CN1C(=O)NC(c2cccc(OCC3CC3)c2)C2=C1c1ccccc1C2=O (stereo not shown) [Compound 641] | 100 to 500 nM
O=C1NC2=C(C(=O)c3ccccc32)C(c2cccc(OCC3CC3)c2Cl)N1 (stereo not shown) [Compound 419] | 100 to 500 nM
CCN1C(=O)NC(c2cccc(OC)c2)C2=C1c1ccccc1C2=O (stereo not shown) [Compound 623] | 100 to 500 nM
C=CCC(F)c1cccc(C2NC(=O)NC3=C2C(=O)c2ccccc23)c1 (stereo not shown) [Compound 402] | < 100 nM
C=CCOc1cccc(C2NC(=O)NC3=C2C(=O)c2ccccc23)c1O (stereo not shown) [Compound 456] | > 1000 nM
O=C1NC2=C(C(=O)c3ccccc32)C(c2ccccc2Cl)N1 (stereo not shown) [Compound 426] | 500 to 1000 nM
CCCOc1cc(F)cc(C2NC(=O)NC3=C2C(=O)c2ccccc23)c1F (stereo not shown) [Compound 404] | < 100 nM
CCOc1cccc(C2NC(=O)N(CC(=O)OC(C)(C)C)C3=C2C(=O)c2ccccc23)c1 (stereo not shown) [Compound 609] | 500 to 1000 nM
O=C1NC2=C(C(=O)c3cc(O)ccc32)C(c2cc(O)ccc2Br)N1 (stereo not shown) [Compound 105] | > 1000 nM
CCOc1cccc(C2NC(=O)NC3=C2C(=O)c2ccccc23)c1F (stereo not shown) [Compound 409] | < 100 nM
CCOc1cccc(C2NC(=O)N(Cc3ccncc3)C3=C2C(=O)c2ccccc23)c1 (stereo not shown) [Compound 613] | > 1000 nM
CCOC(=O)CN1C(=O)NC(c2cccc(OCC)c2)C2=C1c1ccccc1C2=O (stereo not shown) [Compound 608] | < 100 nM
CCOc1cccc(C2NC(=O)N(CC(F)(F)F)C3=C2C(=O)c2ccccc23)c1 (stereo not shown) [Compound 605] | 500 to 1000 nM
O=C1C2=C(NC(=S)NC2c2ccccc2)c2ccccc21 (stereo not shown) [Compound 301] | < 100 nM
CCOc1cccc(C2NC(=O)NC3=C2C(=O)c2cccnc23)c1F (stereo not shown) [Compound 901] | 100 to 500 nM
N#CCN1C(=O)NC(c2cccc(OC(F)F)c2)C2=C1c1ccccc1C2=O (stereo not shown) [Compound 618] | < 100 nM
CCOc1cccc(C2NC(=O)NC3=C2C(=O)c2ccccc23)c1F (stereo not shown) [Compound 616] | < 100 nM
CCN(C(C)=O)c1cccc(C2NC(=O)NC3=C2C(=O)c2ccccc23)c1 (stereo not shown) [Compound 443] | > 1000 nM
CCOc1cccc(C2NC(=O)NC3=C2C(=O)c2cccnc23)c1 (stereo not shown) [Compound 902] | 100 to 500 nM
O=C1NC2=C(C(=O)c3ccccc32)C(c2ccc3c(c2)OCO3)N1 (stereo not shown) [Compound 457] | > 1000 nM

Compound | IC50
C=CCOc1cccc(C2NC(=NC#N)N(Cc3ccccc3)C3=C2C(=O)c2ccccc23)c1 (stereo not shown) [Compound 961] | > 1000 nM
C=CCOc1cccc(C2NC(=O)N(Cc3ccncc3)C3=C2C(=O)c2ccccc23)c1 (stereo not shown) [Compound 635] | > 1000 nM
N#CN=C1NC2=C(C(=O)c3ccccc32)C(c2ccccc2)N1 (stereo not shown) [Compound 956] | > 1000 nM
Nc1cccc(C2NC(=O)NC3=C2C(=O)c2ccccc23)c1 (stereo not shown) [Compound 444] | > 1000 nM
O=C1NC2=C(C(=O)c3ccccc32)C(c2cccc(Cl)c2)N1 (stereo not shown) [Compound 431] | > 1000 nM
COc1cccc(C2NC(=O)N(Cc3ccccc3)C3=C2C(=O)c2ccccc23)c1 (stereo not shown) [Compound 625] | 100 to 500 nM
CCCC(F)c1cccc(C2NC(=O)NC3=C2C(=O)c2cccnc23)c1 (stereo not shown) [Compound 907] | < 100 nM
O=C1NC2=C(C(=O)c3ccccc32)C(c2ccccc2O)N1 (stereo not shown) [Compound 435] | > 1000 nM
CC(F)(F)Oc1cccc(C2NC(=O)NC3=C2C(=O)c2ccccc23)c1 (stereo not shown) [Compound 450] | > 1000 nM
CN1C(=S)NC(c2ccccc2)C2=C1c1cccc(O)c1C2=O (stereo not shown) [Compound 313] | > 1000 nM
C=CCOc1cccc(C2NC(=O)NC3=C2C(=O)c2ccccc23)c1C(F)(F)F (stereo not shown) [Compound 454] | > 1000 nM
O=C1NC2=C(C(=O)c3c(O)cccc32)C(c2cc(O)ccc2Br)N1 (stereo not shown) [Compound 104] | > 1000 nM
CN1C(=S)NC2=C(C(=O)c3ccccc32)C1c1ccccc1 (stereo not shown) [Compound 303] | > 1000 nM
O=C1NC2=C(C(=O)c3c(Cl)cccc32)C(c2cc(O)ccc2Br)N1 (stereo not shown) [Compound 101] | < 100 nM
CCCS(=O)(=O)c1cccc(C2NC(=O)NC3=C2C(=O)c2cccnc23)c1 (stereo not shown) [Compound 911] | > 1000 nM
C=CCOc1ccc(Cl)c(C2NC(=O)NC3=C2C(=O)c2ccccc23)c1 (stereo not shown) [Compound 415] | 100 to 500 nM
O=C1NC2=C(C(=O)c3ccccc32)C(c2cccs2)N1 (stereo not shown) [Compound 502] | > 1000 nM
C=CCOc1cccc(C2NC(=O)N(Cc3ccccc3)C3=C2C(=O)c2ccccc23)c1 (stereo not shown) [Compound 632] | < 100 nM
CN1C(=S)NC2=C(C(=O)c3ccccc32)C1c1cccc(C#N)c1 (stereo not shown) [Compound 309] | > 1000 nM
CCCOc1ccc(F)c(C2NC(=O)N(CC#N)C3=C2C(=O)c2ccccc23)c1F (stereo not shown) [Compound 648] | < 100 nM
O=C1NC2=C(C(=O)c3ccccc32)C(c2cccc3c2OCO3)N1 (stereo not shown) [Compound 439] | > 1000 nM
CCOc1cccc(C2NC(=O)NC3=C2C(=O)c2ccccc23)n1 (stereo not shown) [Compound 504] | 500 to 1000 nM

Compound | IC50
CCOc1cccc(C2NC(=S)N(C)C3=C2C(=O)c2ccccc23)c1 (stereo not shown) [Compound 311] | < 100 nM
COc1ccc(F)c(C2NC(=O)NC3=C2C(=O)c2ccccc23)c1 (stereo not shown) [Compound 432] | > 1000 nM
O=C1C2=C(c3ccccc31)N(Cc1ccccc1)C(=O)NC2c1cccc(OC(F)F)c1 (stereo not shown) [Compound 620] | < 100 nM
O=C1NC2=C(C(=O)c3ccccc32)C(c2ccc(Cl)cc2)N1 (stereo not shown) [Compound 442] | > 1000 nM
O=C1NC2=C(C(=O)c3ccc(O)cc32)C(c2cc(O)ccc2Br)N1 (stereo not shown) [Compound 106] | > 1000 nM
CCC[S+]([O-])c1cccc(C2NC(=O)NC3=C2C(=O)c2cccnc23)c1 (stereo not shown) [Compound 910] | > 1000 nM
CCCOc1ccc(F)c(C2NC(=O)NC3=C2C(=O)c2cccnc23)c1F (stereo not shown) [Compound 912] | < 100 nM
CCOc1cccc(C2NC(=O)N(Cc3ccccn3)C3=C2C(=O)c2ccccc23)c1 (stereo not shown) [Compound 611] | > 1000 nM
C=CC(F)(F)Oc1cccc(C2NC(=O)N(Cc3ccccc3)C3=C2C(=O)c2ccccc23)c1 (stereo not shown) [Compound 649] | > 1000 nM
CCOc1cccc(C2NC(=O)N(C)C3=C2C(=O)c2ccccc23)c1 (stereo not shown) [Compound 603] | < 100 nM
O=C1NC2=C(C(=O)c3ccccc32)C(c2c(Cl)cccc2Cl)N1 (stereo not shown) [Compound 449] | > 1000 nM
CN1C(=S)NC(c2ccccc2)C2=C1c1ccccc1C2=O (stereo not shown) [Compound 302] | < 100 nM
CCCOc1cccc(C2NC(=O)NC3=C2C(=O)c2ccccc23)c1 (stereo not shown) [Compound 407] | < 100 nM
CCCN1C(=O)NC(c2cccc(OC)c2)C2=C1c1ccccc1C2=O (stereo not shown) [Compound 624] | > 1000 nM
N#CN=C1NC2=C(C(=O)c3ccccc32)C(c2cccc(OCC3CCC3)c2)N1 (stereo not shown) [Compound 958] | > 1000 nM
CCOc1cccc(C2NC(=O)NC3=C2C(=O)c2ccccc23)c1Cl (stereo not shown) [Compound 423] | 500 to 1000 nM
O=C1NC2=C(C(=O)c3ccccc32)C(c2cccc(O)c2)N1 (stereo not shown) [Compound 436] | > 1000 nM
CCCOc1cccc(C2NC(=O)N(CC)C3=C2C(=O)c2ccccc23)c1 (stereo not shown) [Compound 646] | < 100 nM
C=CCOc1cccc(C2NC(=O)N(C)C3=C2C(=O)c2ccccc23)c1C(F)(F)F (stereo not shown) [Compound 643] | > 1000 nM

— patent US8530487B1 (priority 2009, dated 2013)
